Experimental data reported in PMC3821907, “Synthesis of Novel Compounds as New Potent Tyrosinase Inhibitors” (BioMed Research International, 2013).

Legend:
[1] = target: mushroom tyrosinase; test: Tyrosinase inhibition assay (diphenolase activity, L-DOPA substrate); assay type: biochemical; details: L-DOPA 0.5 mM, pH 6.8, 25°C, mean ± SEM, read-out: IC50 ± SEM, tyrosinase inhibitory activity
Description: The spectrophotometric assay for tyrosinase was performed according to the method Ref 15. Briefly, all the synthesized compounds were screened for the diphenolase inhibitory activity of tyrosinase using L-DOPA as substrate. All the compounds were dissolved in DMSO. The final concentration of DMSO in the test solution was 2.0%. Phosphate buffer, pH=6.8, was used to dilute the DMSO stock solution of test compounds. Thirty units of mushroom tyrosinase (0.5 mg/mL) were first preincubated with the compounds, in 50 mM phosphate buffer (pH 6.8), for 10 min at 25°C. Then the L-DOPA (0.5 mM) was added to the reaction mixture, and the enzyme reaction was monitored by measuring the change in absorbance at 475 nm of formation of the L-DOPA chrome for 10 min. The measurement was performed in triplicate for each concentration and averaged before further calculation. […] The percent of inhibition of tyrosinase reaction was calculated as the following: Inhibition (%) = [B−S/B] × 100. Here, the B and S are the absorbances for the blank and samples.

[2] = Cytotoxicity assay (MTT); assay type: cell-based; details: B16F10 mouse melanoma cells, read-out: Cytotoxicity cell viability (%)
Description: (§1) Also inhibitions of the compounds 5a–5f were tested on melanin production and their cytotoxicity on B16F10 mouse melanoma cells at concentrations of 20 μg/mL.
Cytotoxicity assays were performed using a microculture MTT method described by Han et al.. A B16F10 mouse melanoma cell suspension was poured into a 96-well plate (10^3 cells/well), and cells were allowed to completely stick […] overnight. Test samples were then added to the plate and were incubated at 37°C for 72 h in a CO2 incubator. 20 μL of MTT solution (2 mg/mL) was then added per well and incubated for 4 hours. Supernatant was then removed, and formazan was solubilized by adding 150 μL DMSO to each well with mild shaking. Absorbance at 490 nm was recorded using an ELISA plate reader.

[3] = test system: B16F10 mouse melanoma cells; test: Inhibition of melanin production; assay type: cell-based; details: 72 h; for inhibition at 20 µg/mL: B16-F10, 20 μg/mL
Description: as §1
Melanin production inhibition was ascertained by method of Wang et al.. A total of 8 × 10^4 cells were added to 60 mm plates and were incubated at 37°C in a CO2 incubator, then, 10 μL test samples in DMSO were added to plates and were incubated for 72 hours at 37°C in a CO2 incubator. After washing with PBS, cells were destroyed with 1 mL of 1 N NaOH, and 200 μL portions of raw cell extracts were moved to 96-well plates. Melanin production inhibition was determined by recording absorbance at 495 nm. The effects of test samples on melanin contents are stated as percent inhibitions of the value obtained in B16F10 mouse melanoma cells which were cultured with DMSO alone.

SMILES	IC50 [1]	melting point	viability at 72 h, 20 μg/mL [2]	inhibition at 20 µg/mL [3]	viability at 72 h, 200 µg/mL ([2]; tested at 200 µg/mL)	inhibition at 200 µg/mL ([3]; B16-F10, tested at 200 µg/mL)
Cc1ccc(SC(=O)/C(=C\c2ccc(F)cc2)NC(=O)c2ccc(/N=N/c3ccc(N(C)C)cc3)cc2)c(S)c1 [Compound 5a, 4-Methyl-2-sulfanylphenyl(E)-2-[(4-{(E)-2-[4-(dimethylamino)phenyl]-1-diazenyl}benzoyl)amino]-3-(4-fluorophenyl)-2-propenethioate]	4.39 ± 0.76 µM	293 °C (dec.)	82.2 ± 3.55%	42.1 ± 0.75%		
CC(=O)Oc1c(/N=N/c2ccc(C(=O)N/C(=C/c3ccc(OC(F)(F)F)cc3)C(=O)Sc3ccc(C)cc3S)cc2)ccc2ccccc12 [Compound 5d, 2-((E)-2-{4-[({(E)-1-{[(4-Methyl-2-sulfanylphenyl)sulfanyl]carbonyl}-2-[4-(trifluoromethoxy)phenyl]-1-ethenyl}amino)carbonyl]phenyl}-1-diazenyl)-1-naphthyl Acetate]	2.48 ± 0.88 µM	318 °C (dec.)	84.7 ± 5.38%	37.5 ± 4.09%		
Cc1ccc(SC(=O)/C(=C\c2ccc(OC(F)(F)F)cc2)NC(=O)c2ccc(/N=N/c3ccc(N(C)C)cc3)cc2)c(S)c1 [Compound 5b, 4-Methyl-2-sulfanylphenyl(E)-2-[(4-{(E)-2-[4-(dimethylamino)phenyl]-1-diazenyl}benzoyl)amino]-3-[4-(trifluoromethoxy)phenyl]-2-propenethioate]	3.86 ± 0.66 µM	286 °C (dec.)	80.1 ± 1.89%	41 ± 4.33%		
O=c1cc(CO)occ1O [Kojic acid, reference compound]					81.7 ± 1.23%	17.3 ± 1.29%

The next lines start with results.

IC50 [1]	melting point	SMILES	viability at 72 h, 20 μg/mL [2]	inhibition at 20 µg/mL [3]	viability at 72 h, 200 µg/mL ([2]; tested at 200 µg/mL)	inhibition at 200 µg/mL ([3]; B16-F10, tested at 200 µg/mL)
1.98 ± 0.39 µM	325 °C (dec.)	CC(=O)Oc1ccc2ccccc2c1/N=N/c1ccc(C(=O)N/C(=C/c2ccc(F)cc2)C(=O)Sc2ccc(C)cc2S)cc1 [Compound 5e, 1-[(E)-2-(4-{[((E)-2-(4-fluorophenyl)-1-{[(4-methyl-2-sulfanylphenyl)sulfanyl]carbonyl}-1-ethenyl)amino]carbonyl}phenyl)-1-diazenyl]-2-naphthyl Acetate]	81.9 ± 1.08%	36.8 ± 1.44%		
2.68 ± 0.55 µM	308 °C (dec.)	CC(=O)Oc1c(/N=N/c2ccc(C(=O)N/C(=C/c3ccc(F)cc3)C(=O)Sc3ccc(C)cc3S)cc2)ccc2ccccc12 [Compound 5c, 2-[(E)-2-(4-{[((E)-2-(4-fluorophenyl)-1-{[(4-methyl-2-sulfanylphenyl)sulfanyl]carbonyl}-1-ethenyl)amino]carbonyl}phenyl)-1-diazenyl]-1-naphthyl Acetate]	83.2 ± 2.22%	35.9 ± 3.11%		
1.71 ± 0.49 µM	320 °C (dec.)	CC(=O)Oc1ccc2ccccc2c1/N=N/c1ccc(C(=O)N/C(=C/c2ccc(OC(F)(F)F)cc2)C(=O)Sc2ccc(C)cc2S)cc1 [Compound 5f, 1-((E)-2-{4-[({(E)-1-{[(4-Methyl-2-sulfanylphenyl)sulfanyl]carbonyl}-2-[4-(trifluoromethoxy)phenyl]-1-ethenyl}amino)carbonyl]phenyl}-1-diazenyl)-2-naphthyl Acetate]	80.6 ± 2.65%	34.7 ± 2.22%		
